For orientation: IC50 means the midpoint of a concentration-inhibition curve.

This test concerns the target T1, PAR4 (Homo sapiens, UniProt Q96RI0).
T1 construct: expressed in transfected cells; host or cells: HEK293 PAR4 Clone 1.2A (BMS Arctic ID 383940)
T1 sequence (Q96RI0 18-385): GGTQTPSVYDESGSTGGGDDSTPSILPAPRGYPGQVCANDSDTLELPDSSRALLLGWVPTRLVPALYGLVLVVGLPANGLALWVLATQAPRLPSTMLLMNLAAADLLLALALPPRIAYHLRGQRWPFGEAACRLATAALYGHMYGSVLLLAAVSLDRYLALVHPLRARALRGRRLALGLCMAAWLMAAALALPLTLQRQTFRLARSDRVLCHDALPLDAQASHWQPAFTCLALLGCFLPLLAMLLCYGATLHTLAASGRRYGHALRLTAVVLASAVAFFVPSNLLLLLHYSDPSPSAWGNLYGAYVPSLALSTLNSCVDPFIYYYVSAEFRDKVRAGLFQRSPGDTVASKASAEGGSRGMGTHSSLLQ
Put plainly: PAR4 FLIPR assay (antagonism of agonist peptide-induced calcium mobilization). Format: cell-based. Put shortly:
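Antagonism was taken as block of calcium mobilization evoked by the agonist peptide H-Ala-Phe(4-F)-Pro-Gly-Trp-Leu-Val-Lys-Asn-[…]-NH2, added after 30 min room-temperature compound preincubation in dye-loaded PAR4-transfected HEK293 cells (endogenous PAR1). Fluorescence was read on FDSS, with compound addition alone used as the agonist counter-screen; values come from 11-point concentration-response curves.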
In general terms: Calcium flux is commonly read through the fluorescence of an indicator in the cells.
Take `COc1cnc2c(-c3nc4c(C)cc5c(c4s3)OCC(COC(=O)Nc3ccc(C)nc3)O5)cc(Cl)cc2n1` (stereo not drawn) [Example 97, (2-(7-chloro-2-methoxyquinoxalin-5-yl)-4-methyl-7,8-dihydro-[1,4]dioxino[2′,3′:3,4]benzo[1,2-d]thiazol-7-yl)methyl (6-methylpyridin-3-yl)carbamate]: the concentration for half-maximal inhibition (IC50) was found to be 64 nM.

`COc1ccc(NC(=O)OC[C@H]2COc3c(cc(C)c4nc(-c5cc(CO)cc6nc(OC)cnc56)sc34)O2)cn1` [Example 98, (R)-(2-(7-(hydroxymethyl)-2-methoxyquinoxalin-5-yl)-4-methyl-7,8-dihydro-[1,4]dioxino[2′,3′:3,4]benzo[1,2-d]thiazol-7-yl)methyl (6-methoxypyridin-3-yl)carbamate]: the IC50 amounted to 1.4 nM.

Turning to `COc1cnc2c(-c3nc4c(C)cc5c(c4s3)OC[C@H](COC(=O)Nc3ccnc(C)c3)O5)cc(CO)cc2n1` [Example 99, (R)-(2-(7-(hydroxymethyl)-2-methoxyquinoxalin-5-yl)-4-methyl-7,8-dihydro-[1,4]dioxino[2′,3′:3,4]benzo[1,2-d]thiazol-7-yl)methyl (2-methylpyridin-4-yl)carbamate], the IC50 was found to be 2 nM.

`COc1cnc2c(-c3nc4c(C)cc5c(c4s3)OC[C@H](COC(=O)Nc3ccc(C)nc3)O5)cc(CO)cc2n1` [Example 100, (R)-(2-(7-(hydroxymethyl)-2-methoxyquinoxalin-5-yl)-4-methyl-7,8-dihydro-[1,4]dioxino[2′,3′:3,4]benzo[1,2-d]thiazol-7-yl)methyl (6-methylpyridin-3-yl)carbamate]: the IC50 was 1.8 nM.

Turning to `COc1cnc2c(-c3nc4c(C)cc5c(c4s3)OC[C@H](COC(=O)Nc3cccnc3)O5)cc(CO)cc2n1` [Example 101, (R)-(2-(7-(hydroxymethyl)-2-methoxyquinoxalin-5-yl)-4-methyl-7,8-dihydro-[1,4]dioxino[2′,3′:3,4]benzo[1,2-d]thiazol-7-yl)methyl pyridin-3-ylcarbamate], the IC50 worked out at 2.8 nM.

Consider `COc1cnc2c(-c3nc4ccc5c(c4s3)OC[C@H](COC(=O)Nc3ccc(C)nc3)O5)cc(C)cc2n1` [Example 102, (R)-(2-(2-methoxy-7-methylquinoxalin-5-yl)-7,8-dihydro-[1,4]dioxino[2′,3′:3,4]benzo[1,2-d]thiazol-7-yl)methyl (6-methylpyridin-3-yl)carbamate], for which the IC50 came out at 2.3 nM.

As to `COc1cnc2c(-c3nc4ccc5c(c4s3)OC[C@H](COC(=O)Nc3cnc(C)nc3)O5)cc(C)cc2n1` [Example 103, (R)-(2-(2-methoxy-7-methylquinoxalin-5-yl)-7,8-dihydro-[1,4]dioxino [2′,3′:3,4]benzo[1,2-d]thiazol-7-yl)methyl (2-methylpyrimidin-5-yl)carbamate], the IC50 turned out to be 2.8 nM.

`COc1ccc(NC(=O)OC[C@H]2COc3c(ccc4nc(-c5cc(C)cc6nc(OC)cnc56)sc34)O2)cn1` [Example 104, (R)-(2-(2-methoxy-7-methylquinoxalin-5-yl)-7,8-dihydro-[1,4]dioxino[2′,3′:3,4]benzo[1,2-d]thiazol-7-yl)methyl (6-methoxypyridin-3-yl)carbamate]: the IC50 was 1.9 nM.

Turning to `COc1cnc2c(-c3nc4ccc5c(c4s3)OC[C@H](COC(=O)Nc3ccc(C#N)nc3)O5)cc(C)cc2n1` [Example 105, (R)-(2-(2-methoxy-7-methylquinoxalin-5-yl)-7,8-dihydro-[1,4]dioxino[2′,3′:3,4]benzo[1,2-d]thiazol-7-yl)methyl (6-cyanopyridin-3-yl)carbamate], the half-inhibitory concentration (IC50) is 1.6 nM.

Take `COc1cnc2c(-c3nc4ccc5c(c4s3)OC[C@H](COC(=O)Nc3ccc4[nH]c(=O)oc4c3)O5)cc(C)cc2n1` [Example 106, (R)-(2-(2-methoxy-7-methylquinoxalin-5-yl)-7,8-dihydro-[1,4]dioxino[2′,3′:3,4]benzo [1,2-d]thiazol-7-yl)methyl (2-oxo-2,3-dihydrobenzo[d]oxazol-6-yl)carbamate]: the IC50 was found to be 2 nM.

For `COc1cnc2c(-c3nc4ccc5c(c4s3)OC[C@H](COC(=O)Nc3cnc4[nH]ccc4c3)O5)cc(C)cc2n1` [Example 107, (R)-(2-(2-methoxy-7-methylquinoxalin-5-yl)-7,8-dihydro-[1,4]dioxino[2′,3′:3,4]benzo [1,2-d]thiazol-7-yl)methyl 1H-pyrrolo[2,3-b]pyridin-5-ylcarbamate], the IC50 was found to be 1.7 nM.

For `COc1cnc2c(-c3nc4ccc5c(c4s3)OC[C@H](COC(=O)Nc3cccnc3)O5)cc(C)cc2n1` [Example 108, (R)-(2-(2-methoxy-7-methylquinoxalin-5-yl)-7,8-dihydro-[1,4]dioxino[2′,3′:3,4]benzo[1,2-d]thiazol-7-yl)methyl pyridin-3-ylcarbamate], the IC50 was 1.8 nM.

For `COc1cnc2c(-c3nc4ccc5c(c4s3)OC[C@H](COC(=O)Nc3ccc(Br)nc3)O5)cc(C)cc2n1` [Example 109, (R)-(2-(2-methoxy-7-methylquinoxalin-5-yl)-7,8-dihydro-[1,4]dioxino[2′,3′:3,4]benzo[1,2-d]thiazol-7-yl)methyl (6-bromopyridin-3-yl)carbamate], the IC50 was found to be 2.6 nM.

Regarding `C=Cc1ccc(NC(=O)OC[C@H]2COc3c(ccc4nc(-c5cc(C)cc6nc(OC)cnc56)sc34)O2)cn1` [Example 110, (R)-(2-(2-methoxy-7-methylquinoxalin-5-yl)-7,8-dihydro-[1,4]dioxino[2′,3′:3,4]benzo[1,2-d]thiazol-7-yl)methyl (6-vinylpyridin-3-yl)carbamate], the IC50 turned out to be 1.6 nM.

Regarding `COc1cnc2c(-c3nc4ccc5c(c4s3)OC[C@H](COC(=O)Nc3ccc([C@H](O)CO)nc3)O5)cc(C)cc2n1` [Example 111, ((R)-2-(2-methoxy-7-methylquinoxalin-5-yl)-7,8-dihydro-[1,4]dioxino[2′,3′:3,4]benzo [1,2-d]thiazol-7-yl)methyl (6-((S)-1,2-dihydroxyethyl)pyridin-3-yl)carbamate], the IC50 came to 2.3 nM.

As to `COc1cnc2c(-c3nc4ccc5c(c4s3)OC[C@H](COC(=O)Nc3ccc(F)nc3)O5)cc(C)cc2n1` [Example 112, (R)-(2-(2-methoxy-7-methylquinoxalin-5-yl)-7,8-dihydro-[1,4]dioxino[2′,3′:3,4]benzo[1,2-d]thiazol-7-yl)methyl (6-fluoropyridin-3-yl)carbamate], the half-inhibitory concentration (IC50) came to 7.1 nM.

For `COc1cnc2c(-c3nc4ccc5c(c4s3)OC[C@H](COC(=O)Nc3cncc(C#N)c3)O5)cc(C)cc2n1` [Example 113, (R)-(2-(2-methoxy-7-methylquinoxalin-5-yl)-7,8-dihydro-[1,4]dioxino[2′,3′:3,4]benzo[1,2-d]thiazol-7-yl)methyl (5-cyanopyridin-3-yl)carbamate], the IC50 came to 1.9 nM.

For the molecule `COc1cnc2c(-c3nc4ccc5c(c4s3)OC[C@H](COC(=O)Nc3ccc(C(=O)N4CCOCC4)cc3)O5)cc(C)cc2n1` [Example 114, (R)-(2-(2-methoxy-7-methylquinoxalin-5-yl)-7,8-dihydro-[1,4]dioxino[2′,3′:3,4]benzo [1,2-d]thiazol-7-yl)methyl (4-(morpholine-4-carbonyl)phenyl)carbamate], the half-maximal inhibitory concentration (IC50) was 1 nM.

With `COc1cnc2c(-c3nc4c(C)cc5c(c4s3)OCC(COC(=O)Nc3ccc(Cl)nc3)O5)cc(C)cc2n1` (stereo not drawn) [Example 115, (2-(2-methoxy-7-methylquinoxalin-5-yl)-4-methyl-7,8-dihydro-[1,4]dioxino[2′,3′:3,4]benzo [1,2-d]thiazol-7-yl)methyl (6-chloropyridin-3-yl)carbamate], the 50% inhibitory concentration (IC50) amounted to 1.4 nM.

For `COc1cnc2c(-c3nc4c(C)cc5c(c4s3)OCC(COC(=O)Nc3ccc(N(C)C)nc3)O5)cc(C)cc2n1` (stereo not drawn) [Example 116, (2-(2-methoxy-7-methylquinoxalin-5-yl)-4-methyl-7,8-dihydro-[1,4]dioxino[2′,3′:3,4]benzo[1,2-d]thiazol-7-yl)methyl (6-(dimethylamino)pyridin-3-yl)carbamate], the IC50 is 3.4 nM.

Consider `COc1cnc2c(-c3nc4c(C)cc5c(c4s3)OCC(COC(=O)Nc3ccnc(-c4ccccc4)c3)O5)cc(C)cc2n1` (stereo not drawn) [Example 117, (2-(2-methoxy-7-methylquinoxalin-5-yl)-4-methyl-7,8-dihydro-[1,4]dioxino[2′,3′:3,4]benzo[1,2-d]thiazol-7-yl)methyl (2-phenylpyridin-4-yl)carbamate], for which the IC50 stood at 1.1 nM.

`COc1cnc2c(-c3nc4c(C)cc5c(c4s3)OCC(COC(=O)Nc3ccnc(F)c3)O5)cc(C)cc2n1` (stereo not drawn) [Example 118, (2-(2-methoxy-7-methylquinoxalin-5-yl)-4-methyl-7,8-dihydro-[1,4]dioxino[2′,3′:3,4]benzo[1,2-d]thiazol-7-yl)methyl (2-fluoropyridin-4-yl)carbamate]: the IC50 worked out at 16 nM.

For `COc1cnc2c(-c3nc4c(C)cc5c(c4s3)OCC(COC(=O)Nc3cnc(C)c(C)c3)O5)cc(C)cc2n1` (stereo not drawn) [Example 119, (2-(2-methoxy-7-methylquinoxalin-5-yl)-4-methyl-7,8-dihydro-[1,4]dioxino[2′,3′:3,4]benzo[1,2-d]thiazol-7-yl)methyl (5,6-dimethylpyridin-3-yl)carbamate], the IC50 amounted to 2.1 nM.

With `COc1cnc2c(-c3nc4c(C)cc5c(c4s3)OCC(COC(=O)Nc3ccc(C)nc3)O5)cc(C)cc2n1` (stereo not drawn) [Example 120, (2-(2-methoxy-7-methylquinoxalin-5-yl)-4-methyl-7,8-dihydro-[1,4]dioxino[2′,3′:3,4]benzo[1,2-d]thiazol-7-yl)methyl (6-methylpyridin-3-yl)carbamate], the IC50 was found to be 0.9 nM.

The record behind these values is patent US11932658B2 (BRISTOL-MYERS SQUIBB COMPANY, priority 2016, dated 2024).
